According to patent US10209240B2, “Predicting human developmental toxicity of pharmaceuticals using human stem-like cells and metabolomic ratios” (STEMINA BIOMARKER DISCOVERY, INC., priority 2012, dated 2019):
Read-outs that look alike come from different tables or passages of the source.

How the values were obtained:
[1] = system: WA09 hES cells; assay: Phase 2 targeted biomarker assay, ornithine/cystine ratio, 9-point dose response; conditions: for Teratogenicity Potential (μM) O/C Ratio: human, 72 h
Description: Undifferentiated hES Cell Line Maintenance (Phases 1 and 2). WA09 hES cells were obtained from the WiCell Research Institute (Madison, Wis.) and were maintained in feeder free conditions using mTeSR1 media (StemCell Technologies, Inc., Vancouver, BC, Canada) on hESC-qualified Matrigel (BD Biosciences, San Jose, Calif.) coated 6-well plates. To maintain the undifferentiated stem cell population, differentiated colonies were removed daily through aspiration and media was replaced. Additionally, the hES cells were only used in experiments up to passage 40 and were karyotyped approximately every 10 passages to minimize and monitor the potential for genetic instability. hES cells were passaged at 90-95% confluency (approximately every 7 days) using Versene (Life Technologies, Grand Island, N.Y.). Cell cultures were maintained at 37° C. under 5% CO2.
96-well hES Cell Plating (Phases 1 and 2). All experimental treatments were carried out in 96-well plates. To minimize plating variability and increase reproducibility, hES cells were plated as a single cell suspension and maintained in an undifferentiated state during compound exposure. Prior to plating in the 96-well plates, hES cells were removed from a 6-well plate using TrypLE (Life Technologies). The cells were washed with DMEM/F12 (Life Technologies) and resuspended in mTeSR1 containing 10 μM Y27632 Rho-associated kinase (ROCK) inhibitor (Merck KGaA/Calbiochem, Darmstadt, Germany). The ROCK inhibitor is added to the plating media to increase plating efficiency by decreasing dissociation-induced apoptosis. The inner 60 wells of hESC-qualified Matrigel coated 96-well plates were seeded at a density of 100,000 cells per well. The outer wells of the plate contained an equal volume media to minimize differences in humidity across the plate. Compound exposure began 24 hours after plating.
(§1) Phase 2 hES Cell Compound Exposure. […] The standard compound exposure levels used for most compounds were nine, 3-fold dilutions ranging from 0.04 μM-300 μM (FIG. 1B). […] The stock solution was diluted 1:1000 in mTeSR1 media and subsequent dilutions were performed in mTeSR1 containing 0.1% DMSO such that the final concentration of DMSO was 0.1% in all treatments. hES cells were treated for 72 hours and spent media from the last 24-hour treatment period was collected and added to acetonitrile containing ^13C6 labeled arginine (Cambridge Isotope Laboratories, Andover, Md.) as described under Phase 1. Spent media samples were stored at −80° C. until prepared for LC-HRMS analysis. Cell viability was assessed using the CellTiter-Fluor Cell Viability Assay. A quality control step was included with criteria that the CV of the measured viability RFU of the DMSO control cells could not exceed 10% for a plate to undergo LC-HRMS analysis. A dose response curve was fit to the reference treatment (0.1% DMSO treated control cells) normalized data (Viability RFUTrt X/Viability RFUDMSO) using a four-parameter log-logistic model with the R package “drc” (Ritz and Streibig, 2005, J Statistical Software; 12:1-22).
Sample Preparation (Phases 1 and 2). High molecular weight constituents (>10 KDa) of the spent media samples were removed using a Millipore Multiscreen Ultracel-10 filter plate (EMD Millipore, Billerica, Mass.). Prior to sample filtration, the filter plate was washed with 0.1% NaOH to remove a known contaminant polymer. The plate was then rinsed twice with HPLC-grade water to remove residual polymers and NaOH. Spent media samples were added to the washed filter plate. In Phase 1, samples were spiked with ^13C6 labeled arginine. Samples were centrifuged at 2,000×g at 4° C. for 200 minutes. The filtrate was collected and concentrated overnight in a Savant High Capacity Speedvac Plus Concentrator.

[2] = system: Rabbit; conditions: cited from earlier work
[3] = system: Rodent; conditions: cited from earlier work; for Rodent in vivo test results: Embryotoxic: embryotoxic effect in the absence of teratogenic effects and maternal toxicity; for Rodent in vivo test results: Teratogenic: structural malformations in the absence of maternal toxicity; for Rodent developmental toxicity testing, result in words: relation to maternal toxicity where stated
[4] = system: WA09 hES cells
Protocol: Phase I hES Cell Compound Exposure. hES cells were treated with a test compound at a single concentration equivalent to the compound's published therapeutic Cmax. […] This was done to ensure that enough cells were present at the time of sample collection to provide a signal for LC-HRMS analysis. For test compound exposure, all compound stock solutions, with the exception of valproic acid, were made with DMSO (Sigma-Aldrich). […] Each 96-well plate included media controls with and without test compound, 0.1% DMSO solvent control cells and cells exposed to a single concentration of eight different test compounds (FIG. 1A). Media controls were included on each plate to assess the impact of test compound on the sample matrix. hES cells were exposed to the test compound for 72 hours, with media and test compound replacement every 24 hours. Cells were monitored throughout the treatment period to ensure that no differentiation was occurring. After 72 hours of treatment, the spent media from the final 24-hour treatment period was collected and added to acetonitrile (Sigma-Aldrich, final acetonitrile concentration 40%), to halt metabolic processes and precipitate proteins from solution. Individual wells from each 96-well plate were collected and analyzed as separate samples. These samples were then stored at −80° C. until prepared for LC-HRMS analysis. Cell viability was assessed using the CellTiter-Fluor Cell Viability Assay as per the manufacturer's instructions (Promega, Madison, Wis.). Quality control parameters were set such that if the coefficient of variation (CV) for the viability relative fluorescent units (RFU) of the 6 cellular samples in a treatment exceeded 10% and no outliers were identified using the Grubb's test (see the worldwide web at graphpad.com/quickcalcs/Grubbs1.cfm), analysis was halted for that compound and the cell culture experiment was repeated. If outliers were present, the outlier sample was removed from analysis. If the CV for the DMSO control cell samples on a plate were outside of the quality control parameters, the entire plate was repeated. hES cell exposure to each of the 23 compounds was replicated a total of nine times.
as §1
Phase 2 Prediction of Developmental Toxicity Potential. […] FIG. 2 illustrates how the assay is applied in this situation. A test compound is considered to be teratogenic at the exposure level where the o/c ratio exceeds the teratogenicity threshold (red box, FIG. 2).

[5] = summarized from TERIS and Briggs et al. 2011, cited from earlier work; for Preclinical in vivo developmental effects: application set compounds; for Preclinical in vivo and known human developmental effects: test set compounds
[6] = cited from earlier work
[7] = system: Humans; conditions: cited from earlier work
[8] = application set, peak plasma concentration in humans
[9] = test set, therapeutic peak plasma in vivo concentration, human

Row | Targeted Biomarker Assay prediction [1] | Structure (SMILES) | Teratogenicity Potential (μM) O/C Ratio [1] [µM] | Rabbit prediction ([2]; application set) | Rodent prediction ([3]; application set) | Teratogenicity Potential (μM) Cell Viability ([4]; human, 72 h) [µM] | Preclinical in vivo developmental effects [5] | Cmax [6, 8] [µM] | Humans (known human developmental toxicity) ([7]; training and test set) | Cmax [6, 9] [µM] | also measured
1 | NON | N[C@@H](CC(=O)N1CCn2c(nnc2C(F)(F)F)C1)Cc1cc(F)c(F)cc1F [Sitagliptin] | 22.6 | – | – | >300 | – | – | NON | 0.95 | O/C Ratio Prediction [1]: NON; Rabbit prediction ([2]; training and test set): NON; Rodent prediction ([3]; training and test set): TER; Viability Prediction [4]: NON; Preclinical in vivo and known human developmental effects [5]: Low doses: None; High
2 | NON | COc1ccccc1Oc1c(NS(=O)(=O)c2ccc(C(C)(C)C)cc2)nc(-c2ncccn2)nc1OCCO [Bosentan] | 44.9 | – | – | 221.9 | – | – | TER | 2 | O/C Ratio Prediction [1]: NON; Rabbit prediction ([2]; training and test set): NON; Rodent prediction ([3]; training and test set): TER; Viability Prediction [4]: NON; Preclinical in vivo and known human developmental effects [5]: Craniofacial,
3 | TER | CCN(CC)C(=O)/C(C#N)=C/c1cc(O)c(O)c([N+](=O)[O-])c1 [Entacapone] | 6.7 | NON | TER | 127 | Eye defects | 3.9 | – | – | Rodent in vivo test results: Teratogenic ([3]; application set): +
4 | – | Cn1c(=O)c2c(ncn2C)n(C)c1=O [Caffeine] | – | – | – | >300 | – | – | – | – | Humans (known human developmental toxicity) ([7]; in vivo): NON; Cmax ([6]; training set, therapeutic peak plasma in vivo concentration, human): 9.3 µM
5 | TER | Nc1ccn(C[C@@H](CO)OCP(=O)(O)O)c(=O)n1 [Cidofovir] | 0.3 | NON | NON | 1.9 | None | 41.2 | – | – | Rodent developmental toxicity testing, result in words [3]: only embryotoxic at exposure levels that also caused maternal toxicity
6 | TER | CO[C@H]1C[C@@H]2CC[C@@H](C)[C@@](O)(O2)C(=O)C(=O)N2CCCC[C@H]2C(=O)O[C@H]([C@H](C)C[C@@H]2CC[C@@H](OCCO)[C@H](OC)C2)CC(=O)[C@H](C)/C=C(\C)[C@@H](O)[C@@H](OC)C(=O)[C@H](C)C[C@H](C)/C=C/C=C/C=C/1C [Everolimus] | <0.04 | – | – | 5.2 | – | – | TER | 0.02 | Classification by o/c ratio in the targeted biomarker assay [1]: classified as a teratogen; O/C Ratio Prediction [1]: TER; Rabbit prediction ([2]; training and test set): NON; Rodent prediction ([3]; training and test set): TER; Viability Prediction [4]: NON; Preclinical in vivo and known human developmental effects [5]: Skeletal, embryo toxicity^c
7 | TER | C[C@H]1[C@H](OC(=O)CCC(=O)O)O[C@@H]2O[C@@]3(C)CC[C@H]4[C@H](C)CC[C@@H]1[C@@]24OO3 [Artesunate] | – | – | – | 0.58 | – | 73.9 | – | – | –
8 | NON | CCC(=O)NCC[C@@H]1CCc2ccc3c(c21)CCO3 [Ramelteon] | 34 | NON | NON | >300 | None | 0.02 | – | – | Rodent developmental toxicity testing, result in words [3]: only embryotoxic at exposure levels that also caused maternal toxicity

Row | Structure (SMILES) | Targeted Biomarker Assay prediction [1] | Teratogenicity Potential (μM) O/C Ratio [1] [µM] | Rabbit prediction ([2]; application set) | Rodent prediction ([3]; application set) | Teratogenicity Potential (μM) Cell Viability ([4]; human, 72 h) [µM] | Preclinical in vivo developmental effects [5] | Cmax [6, 8] [µM] | Humans (known human developmental toxicity) ([7]; training and test set) | Cmax [6, 9] [µM] | also measured
9 | Nc1nc(NC2CC2)c2ncn([C@H]3C=C[C@@H](CO)C3)c2n1 [Abacavir] | NON | 95.1 | NON | TER | 94.1 | Skeletal, embryo toxicity^c | 14.9 | – | – | Rodent in vivo test results: Embryotoxic ([3]; application set): +; Rodent in vivo test results: Teratogenic ([3]; application set): +
10 | CC(C)(C)C(=O)OCOP(=O)(COCCn1cnc2c(N)ncnc21)OCOC(=O)C(C)(C)C [Adefovir dipivoxil] | TER | – | – | – | – | – | 0.03 | – | – | Rodent developmental toxicity testing, result in words [3]: only embryotoxic at exposure levels that also caused maternal toxicity; Teratogenicity Potential (μM) Cell Viability ([4]; application set, interpolated concentration where cell viability dose response curve crosses teratogenicity threshold 0.88, 72 hours): 0.02 µM
11 | CC(C)CN(C[C@@H](O)[C@H](Cc1ccccc1)NC(=O)O[C@H]1CCOC1)S(=O)(=O)c1ccc(N)cc1 [Amprenavir] | NON | 236.9 | TER | TER | 259.5 | Skeletal, embryo toxicity^c | 15.1 | – | – | Rodent in vivo test results: Embryotoxic ([3]; application set): +; Rodent in vivo test results: Teratogenic ([3]; application set): +
12 | Nc1nc2c(ncn2COCCO)c(=O)[nH]1 [Acycloguanosine] | NON | – | – | – | >300 | – | – | NON | 3 | Viability Prediction ([4]; test set, teratogenicity potential scored against therapeutic Cmax): NON
